Active and inactive are the calls of the source.

Test [1] deals with T1, Replicative DNA helicase DnaB (Mycobacterium tuberculosis, UniProt P9WMR3).
T1 sequence (P9WMR3 whole entry): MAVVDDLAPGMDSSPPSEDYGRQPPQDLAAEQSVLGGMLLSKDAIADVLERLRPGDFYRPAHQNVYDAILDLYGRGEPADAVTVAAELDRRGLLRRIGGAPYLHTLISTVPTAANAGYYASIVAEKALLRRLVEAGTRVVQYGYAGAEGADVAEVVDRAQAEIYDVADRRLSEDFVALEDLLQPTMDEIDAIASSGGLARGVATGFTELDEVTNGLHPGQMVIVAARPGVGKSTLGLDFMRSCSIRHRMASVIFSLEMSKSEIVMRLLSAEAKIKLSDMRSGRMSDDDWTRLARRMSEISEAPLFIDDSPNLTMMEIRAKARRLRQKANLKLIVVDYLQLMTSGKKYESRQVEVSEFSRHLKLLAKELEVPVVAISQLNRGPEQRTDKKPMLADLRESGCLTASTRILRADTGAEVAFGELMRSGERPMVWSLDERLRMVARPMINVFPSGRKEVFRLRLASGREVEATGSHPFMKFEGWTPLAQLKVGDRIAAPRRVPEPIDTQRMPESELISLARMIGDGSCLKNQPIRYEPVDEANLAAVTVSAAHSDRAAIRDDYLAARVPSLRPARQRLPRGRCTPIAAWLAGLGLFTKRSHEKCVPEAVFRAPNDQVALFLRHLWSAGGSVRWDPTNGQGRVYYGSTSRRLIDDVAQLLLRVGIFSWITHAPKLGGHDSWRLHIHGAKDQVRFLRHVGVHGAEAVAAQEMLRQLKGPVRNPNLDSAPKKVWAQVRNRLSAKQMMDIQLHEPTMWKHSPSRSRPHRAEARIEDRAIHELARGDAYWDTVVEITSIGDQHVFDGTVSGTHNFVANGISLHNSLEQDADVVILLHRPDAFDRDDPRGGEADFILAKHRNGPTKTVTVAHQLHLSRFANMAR
Put plainly: DnaB intein splicing inhibitors, dose response, biochemical, cell-free fluorescence (AID 449749). Format: functional.

The next test concerns the target T2, Protein RecA (Mycobacterium tuberculosis, UniProt P9WHJ3).
T2 sequence (P9WHJ3 whole entry): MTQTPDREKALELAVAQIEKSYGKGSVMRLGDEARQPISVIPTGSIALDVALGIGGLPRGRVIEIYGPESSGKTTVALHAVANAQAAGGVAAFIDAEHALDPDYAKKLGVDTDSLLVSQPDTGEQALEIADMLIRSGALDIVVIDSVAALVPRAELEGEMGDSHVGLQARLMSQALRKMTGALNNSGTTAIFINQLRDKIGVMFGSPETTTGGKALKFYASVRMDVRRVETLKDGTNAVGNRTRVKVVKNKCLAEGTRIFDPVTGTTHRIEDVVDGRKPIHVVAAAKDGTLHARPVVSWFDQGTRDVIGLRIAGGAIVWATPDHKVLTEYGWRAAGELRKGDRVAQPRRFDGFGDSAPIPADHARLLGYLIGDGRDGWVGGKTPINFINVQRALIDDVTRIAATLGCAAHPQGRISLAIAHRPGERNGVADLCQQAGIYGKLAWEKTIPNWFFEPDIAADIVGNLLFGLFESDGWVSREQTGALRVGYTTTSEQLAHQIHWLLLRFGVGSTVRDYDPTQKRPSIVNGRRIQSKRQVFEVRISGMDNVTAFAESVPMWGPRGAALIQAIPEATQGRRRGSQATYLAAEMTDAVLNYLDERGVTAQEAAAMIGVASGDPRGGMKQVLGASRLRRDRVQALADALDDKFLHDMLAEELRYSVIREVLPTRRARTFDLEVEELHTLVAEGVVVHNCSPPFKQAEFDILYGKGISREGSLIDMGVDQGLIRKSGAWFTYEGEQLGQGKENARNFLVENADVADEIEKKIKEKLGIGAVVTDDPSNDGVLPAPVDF
Put plainly: Fluorescence Cell-Free Homogeneous Dose Retest to Identify Inhibitors of RecA-Intein Splicing Activity. [Related pubchem assays (depositor defined):AID2097, AID2223, AID489010, AID492950]. Type of test: functional.

The target of test [2] is T3, Probable nicotinate-nucleotide adenylyltransferase (Staphylococcus aureus (strain N315), UniProt P65502). Format: functional, Staphylococcus aureus subsp. aureus N315.
T3 sequence (P65502 whole entry): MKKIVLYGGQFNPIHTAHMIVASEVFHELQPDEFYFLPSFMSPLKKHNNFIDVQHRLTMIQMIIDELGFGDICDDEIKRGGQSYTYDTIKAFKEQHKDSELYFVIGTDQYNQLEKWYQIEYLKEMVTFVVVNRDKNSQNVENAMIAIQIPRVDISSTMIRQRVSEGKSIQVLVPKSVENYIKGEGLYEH
For test [3], the target named is T3, Probable nicotinate-nucleotide adenylyltransferase. Format: functional, Staphylococcus aureus subsp. aureus N315. The note with it: read-out: IC50_Mean.
Test [4] has as its target T4, Sentrin-specific protease 8 (Homo sapiens, UniProt Q96LD8).
T4 sequence (Q96LD8 whole entry): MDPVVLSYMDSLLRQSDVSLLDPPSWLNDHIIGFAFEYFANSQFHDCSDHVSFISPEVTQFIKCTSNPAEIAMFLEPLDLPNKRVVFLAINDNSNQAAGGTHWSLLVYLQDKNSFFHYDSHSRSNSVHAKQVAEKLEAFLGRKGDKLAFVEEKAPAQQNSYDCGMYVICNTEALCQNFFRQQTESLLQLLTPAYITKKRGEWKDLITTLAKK
Format: functional.

For test [5], the target named is T4, Sentrin-specific protease 8. Type of test: functional. The source holds these as a separate data set.
The nature of test [6]: miR-122 activators in hepatoma reporter cells, dose response, cell-based, Huh7 psiCHECK-miR122, Renilla luciferase, cherry-picked (AID 651956).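 Note: huh7 hepatoma cells stably carrying a psiCHECK-2 miR-122 sensor plasmid; renilla luciferase signal reporting endogenous miR-122 activity after 48 h compound exposure.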 Format: functional.
Test [7] can be described thus: HEK293T cytotoxicity, dose response, cytotoxicity control for miR-122 modulator project, cell-based, inhibitor set, cherry-pick, set 2 (AID 720697). Format: functional.
Test [8] concerns the target T5, Rac GTPase-activating protein 1 (Homo sapiens, UniProt Q9H0H5).
T5 sequence (Q9H0H5 whole entry): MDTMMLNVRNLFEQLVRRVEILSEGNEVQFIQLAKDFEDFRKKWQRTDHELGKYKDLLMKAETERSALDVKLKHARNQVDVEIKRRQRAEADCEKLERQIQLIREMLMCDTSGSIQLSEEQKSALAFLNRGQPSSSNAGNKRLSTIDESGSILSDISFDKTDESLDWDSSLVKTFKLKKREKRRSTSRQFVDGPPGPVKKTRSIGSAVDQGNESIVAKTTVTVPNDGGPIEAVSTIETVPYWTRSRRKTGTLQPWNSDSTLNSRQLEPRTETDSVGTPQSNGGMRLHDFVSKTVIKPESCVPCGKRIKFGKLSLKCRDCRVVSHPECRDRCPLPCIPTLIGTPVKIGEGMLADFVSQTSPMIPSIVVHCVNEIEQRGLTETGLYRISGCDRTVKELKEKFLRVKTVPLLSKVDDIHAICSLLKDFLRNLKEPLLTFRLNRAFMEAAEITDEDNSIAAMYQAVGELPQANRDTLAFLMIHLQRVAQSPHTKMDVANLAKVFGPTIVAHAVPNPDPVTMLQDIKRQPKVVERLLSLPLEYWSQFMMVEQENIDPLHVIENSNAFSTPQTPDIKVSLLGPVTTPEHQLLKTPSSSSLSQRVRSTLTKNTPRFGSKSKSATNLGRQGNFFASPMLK
Put plainly: MgcRacGAP GTPase-activating activity inhibitors, confirmation, biochemical, ADP Hunter fluorescence, primary and confirmatory (AID 624330). Format: functional.

The nature of test [9]: inhibitors of HIV Env-driven cell fusion, dose response, cherry-pick (AID 652057). Format: functional, cell-based.
A short description of test [10]: ZM109 Env clade C HIV-1 fusion inhibitors, dose response, HeLa effector, CEM target cells, luciferase, cherry-pick (AID 652058). Format: functional, cell-based.
A short description of test [11]: off-target signal loss in HeLa-CEM21 co-culture – HeLa F-luc CTL cells, cherry-picked, counter-screen for HIV-1 Env fusion inhibitor project, dose response (AID 652040).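 Note: potency for signal decrease marking cytotoxic or nonspecific inhibition.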 Format: functional, cell-based.
The nature of test [12]: inhibitors of clade B AD8 Env fusion, dose response, cell-based, cherry-pick (AID 652062).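 Note: luciferase signal from cell-cell fusion driven by HIV-1 clade B AD8 Env; potency is for inhibitors of fusion seen as a drop in luminescence.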 Type of test: functional.
Test [13] has as its target T6, Corticotropin-releasing factor receptor 2/Corticotropin-releasing factor-binding protein (Homo sapiens, UniProt P24387+Q13324).
T6 sequence (Q13324 whole entry): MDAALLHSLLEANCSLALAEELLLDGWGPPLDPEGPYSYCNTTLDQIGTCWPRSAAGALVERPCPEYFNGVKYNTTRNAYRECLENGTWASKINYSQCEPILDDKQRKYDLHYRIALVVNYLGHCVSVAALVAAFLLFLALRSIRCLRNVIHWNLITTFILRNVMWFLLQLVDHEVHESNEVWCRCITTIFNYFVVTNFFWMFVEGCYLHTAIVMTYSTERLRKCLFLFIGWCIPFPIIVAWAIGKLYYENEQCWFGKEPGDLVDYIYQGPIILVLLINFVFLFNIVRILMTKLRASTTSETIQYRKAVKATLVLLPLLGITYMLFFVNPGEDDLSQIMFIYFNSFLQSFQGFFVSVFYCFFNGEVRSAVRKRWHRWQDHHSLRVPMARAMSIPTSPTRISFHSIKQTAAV
T6 sequence (P24387 whole entry): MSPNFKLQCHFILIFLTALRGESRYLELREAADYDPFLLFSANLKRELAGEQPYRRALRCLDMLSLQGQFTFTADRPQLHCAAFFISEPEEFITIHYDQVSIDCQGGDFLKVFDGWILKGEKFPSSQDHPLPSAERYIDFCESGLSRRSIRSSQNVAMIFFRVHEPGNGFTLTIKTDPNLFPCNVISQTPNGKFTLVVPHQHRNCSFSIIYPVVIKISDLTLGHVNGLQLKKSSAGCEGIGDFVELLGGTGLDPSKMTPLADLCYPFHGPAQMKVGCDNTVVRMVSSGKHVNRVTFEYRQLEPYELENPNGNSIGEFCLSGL
Nature of the test: Dose Response confirmation of uHTS hits for small molecule antagonists of the CRF-binding protein and CRF-R2 receptor complex. Type of test: functional. The note with it: read-out: IC50_Mean.

In test [14] the target is T6, Corticotropin-releasing factor receptor 2/Corticotropin-releasing factor-binding protein. Nature of the test: activators of CRF receptor 2 with binding protein – uHTS hits, confirmation (AID 602473). Type of test: functional. The note with it: read-out: EC50_Mean.
Test [15] is described as follows: CRF-BP/CRF-R2 complex antagonists, dose response, cell-based, uHTS hits, 384-well (AID 651639). Format: functional, Homo sapiens. The note with it: read-out: IC50_Mean.
The target of test [16] is T7, Fatty acid synthase (Homo sapiens, UniProt P49327). Nature of the test: FAS thioesterase domain inhibitors, dose response, biochemical, endpoint fluorescence intensity, uHTS hits (AID 624327).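 Note: fluorescence from hydrolysis of an O-methyl fluorescein acyl ester substrate by the enzyme.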 Format: functional.
T7 sequence (P49327 whole entry, the tested form may be a part): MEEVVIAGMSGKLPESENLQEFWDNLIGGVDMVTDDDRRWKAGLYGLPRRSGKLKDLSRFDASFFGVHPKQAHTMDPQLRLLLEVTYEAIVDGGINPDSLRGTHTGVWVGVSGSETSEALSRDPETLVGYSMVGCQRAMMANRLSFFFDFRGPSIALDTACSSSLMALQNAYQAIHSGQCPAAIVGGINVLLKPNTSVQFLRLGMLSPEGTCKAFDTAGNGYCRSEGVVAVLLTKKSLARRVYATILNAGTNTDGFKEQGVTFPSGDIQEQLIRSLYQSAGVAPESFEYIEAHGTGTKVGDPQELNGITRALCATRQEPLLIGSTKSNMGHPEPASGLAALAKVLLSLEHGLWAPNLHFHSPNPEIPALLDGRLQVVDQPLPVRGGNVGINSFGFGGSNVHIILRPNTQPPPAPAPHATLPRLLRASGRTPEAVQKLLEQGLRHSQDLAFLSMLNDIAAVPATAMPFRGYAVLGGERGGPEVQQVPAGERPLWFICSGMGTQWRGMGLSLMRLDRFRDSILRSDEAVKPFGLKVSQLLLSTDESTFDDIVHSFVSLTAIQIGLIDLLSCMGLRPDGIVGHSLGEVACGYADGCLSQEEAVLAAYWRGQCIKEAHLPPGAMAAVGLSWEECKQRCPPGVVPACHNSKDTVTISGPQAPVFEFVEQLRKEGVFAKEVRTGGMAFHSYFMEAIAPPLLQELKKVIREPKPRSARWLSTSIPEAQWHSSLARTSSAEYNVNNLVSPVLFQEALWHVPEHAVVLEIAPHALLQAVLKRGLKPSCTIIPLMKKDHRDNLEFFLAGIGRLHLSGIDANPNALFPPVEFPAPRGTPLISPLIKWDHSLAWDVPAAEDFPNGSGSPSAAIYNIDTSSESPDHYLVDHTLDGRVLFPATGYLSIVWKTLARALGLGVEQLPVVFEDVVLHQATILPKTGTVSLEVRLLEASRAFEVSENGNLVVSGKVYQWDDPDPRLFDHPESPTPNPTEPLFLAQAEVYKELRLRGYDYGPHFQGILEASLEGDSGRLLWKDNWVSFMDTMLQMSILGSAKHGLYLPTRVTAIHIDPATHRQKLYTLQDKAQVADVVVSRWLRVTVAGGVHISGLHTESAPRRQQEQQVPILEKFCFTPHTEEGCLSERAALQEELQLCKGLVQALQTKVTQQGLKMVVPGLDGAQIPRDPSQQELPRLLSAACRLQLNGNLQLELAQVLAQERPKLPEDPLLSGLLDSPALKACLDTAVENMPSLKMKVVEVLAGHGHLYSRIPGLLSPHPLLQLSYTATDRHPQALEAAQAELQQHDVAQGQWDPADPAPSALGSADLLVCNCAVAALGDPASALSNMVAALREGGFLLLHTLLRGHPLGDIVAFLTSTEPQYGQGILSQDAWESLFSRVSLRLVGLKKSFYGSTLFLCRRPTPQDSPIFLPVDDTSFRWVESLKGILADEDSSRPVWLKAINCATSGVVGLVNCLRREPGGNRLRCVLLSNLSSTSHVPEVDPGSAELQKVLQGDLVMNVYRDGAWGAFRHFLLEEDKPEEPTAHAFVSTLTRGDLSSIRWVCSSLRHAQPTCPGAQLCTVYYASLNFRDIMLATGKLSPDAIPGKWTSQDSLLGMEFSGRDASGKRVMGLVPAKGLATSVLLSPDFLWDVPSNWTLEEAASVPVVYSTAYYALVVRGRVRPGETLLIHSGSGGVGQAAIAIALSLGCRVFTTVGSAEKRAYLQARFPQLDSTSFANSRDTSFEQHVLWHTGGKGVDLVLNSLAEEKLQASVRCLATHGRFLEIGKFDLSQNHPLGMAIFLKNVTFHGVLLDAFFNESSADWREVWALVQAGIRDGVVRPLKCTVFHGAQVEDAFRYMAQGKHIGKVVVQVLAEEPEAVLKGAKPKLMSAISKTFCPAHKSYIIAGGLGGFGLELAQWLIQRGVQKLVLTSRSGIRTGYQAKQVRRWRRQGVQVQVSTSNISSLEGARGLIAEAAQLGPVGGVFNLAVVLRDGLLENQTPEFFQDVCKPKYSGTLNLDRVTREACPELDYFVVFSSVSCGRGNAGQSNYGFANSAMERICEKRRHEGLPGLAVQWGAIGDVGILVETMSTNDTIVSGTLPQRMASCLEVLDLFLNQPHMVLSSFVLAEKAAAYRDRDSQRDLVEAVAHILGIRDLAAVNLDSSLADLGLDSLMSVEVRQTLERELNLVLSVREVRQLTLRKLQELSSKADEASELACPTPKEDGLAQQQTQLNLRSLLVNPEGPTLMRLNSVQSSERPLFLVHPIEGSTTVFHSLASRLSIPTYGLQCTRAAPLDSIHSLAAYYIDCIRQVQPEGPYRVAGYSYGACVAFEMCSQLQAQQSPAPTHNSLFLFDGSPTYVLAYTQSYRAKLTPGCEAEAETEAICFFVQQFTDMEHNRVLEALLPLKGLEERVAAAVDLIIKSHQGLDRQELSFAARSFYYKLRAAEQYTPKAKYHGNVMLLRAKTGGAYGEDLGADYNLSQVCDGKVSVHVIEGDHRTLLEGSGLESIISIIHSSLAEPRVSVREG
Test [17] deals with T7, Fatty acid synthase. Nature of the test: FAS thioesterase domain inhibitors, dose response, biochemical, kinetic fluorescence intensity (AID 624326).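 Note: rate of fluorescence rise from hydrolysis of a fluorogenic O-methyl fluorescein ester substrate.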 Type of test: functional.

By AC50 is commonly meant the concentration giving half of the maximal activity seen. In the case of `CC1=NN(c2ccc(C)c(C)c2)C(=O)C1C(c1cccc(O)c1)C1C(=O)N(c2ccc(C)c(C)c2)N=C1C` (stereo unspecified), the AC50 in [1] is 1.14 µM (active). The EC50 at Protein RecA is 0.468 µM (active). In addition, the IC50 in test [2] was 6.63 µM (active); in test [3], 15.1 µM (active); in test [4], 7.94 µM (active); in test [5], 14.7 µM (active).

As for `COc1ccccc1C#Cc1ccc2c(c1)O[C@H](CN(C)Cc1cccnc1)[C@@H](C)CN([C@@H](C)CO)S2(=O)=O`, the figures for the AC50 in test [6] and in test [7] were 25.6 µM (active) and 0.944 µM (active), respectively.

Take `COCC(=O)N(C)C[C@H]1Oc2cc(-c3ccccc3F)ccc2S(=O)(=O)N([C@@H](C)CO)C[C@H]1C`: the AC50 in [6] was 3.15 µM (active); in test [7], 8.35 µM (active).

On to `COc1ccc(NCc2ccc([N+](=O)[O-])s2)c(OC)c1`, for which the IC50 in test [4] is 13.5 µM (active); in [5], 11.6 µM (active); in [8], 34.4 µM (active).

For the compound `CCCN(CC(=O)Nc1ccccc1OC)C(=O)c1cccc(S(=O)(=O)NCc2ccccc2)c1`, the AC50 in test [9] was 4.37 µM (active); in test [10] it was 10.3 µM (active); in test [11] it was 5.73 µM (active); in [12] it was 39.2 µM (active).

For `O=C1SCCN1N=Cc1ccc([N+](=O)[O-])o1`, the IC50 is > 100 µM (inactive) in test [4] and 61 µM (inactive) in [5].

For the compound `C=CCN(Cc1ccc(OC)c(OC)c1)C(=O)c1cc2cc(F)ccc2[nH]1`, the AC50 was 6.22 µM (active) in test [9], 9.08 µM (active) in test [10], 11.8 µM (active) in test [11] and 10.5 µM (active) in test [12].

For `COc1ccc([N+](=O)[O-])cc1N(CC(O)Cn1nnc2ccccc21)S(=O)(=O)c1ccc(C)cc1` (stereo unspecified), the IC50 is 4.39 µM (active) in test [13], 8.96 µM (active) in test [15], 10.8 µM (active) at Fatty acid synthase [16] and 8.07 µM (active) on Fatty acid synthase [17]. Further, the EC50 in test [14] is > 53 µM (inactive).

`O=C(c1ccc(S(=O)(=O)Nc2ccc(F)cc2)cc1)N1CCN(C(=O)c2ccco2)CC1`: the AC50 was 10.4 µM (active) in [10], 24.4 µM (active) in test [11] and 2.86 µM (active) in [12].

Source of the values: ChEMBL document CHEMBL1201862, “PubChem BioAssay data set” (2004).
